Measurements published in paper PMC10935581 (Biochemistry, 2023).
“Also recorded” adds a separate entry of the source. Read-outs that look alike come from different tables or passages of the source. Blank lines part the entries; values can stand above or below the compound they belong to.

Legend:
[1] = molecular target: T1, NAMPT (Homo sapiens, UniProt P43490); conditions: cited from earlier work
[2] = molecular target: T1, NAMPT; experiment: Coupled primary NAMPT enzyme assay; format: biochemical; conditions: for HTS outcome (increase of NAMPT enzyme activity): screen of ChemDiv and Microsource Spectrum libraries
[3] = molecular target: T1, NAMPT; experiment: Orthogonal NAMPT endpoint assay; format: biochemical
[4] = test system: THP-1 human leukemic monocyte cell line; experiment: Cellular NAD+ by miniaturized NADglo assay; format: cell-based; conditions: 24 h incubation
[5] = molecular target: T1, NAMPT; experiment: Fluorescence polarization binding assay
[6] = molecular target: T1, NAMPT; experiment: Uncoupled ATPase reaction of NAMPT; format: biochemical; conditions: absence of PRPP

T1 sequence (P43490 whole entry): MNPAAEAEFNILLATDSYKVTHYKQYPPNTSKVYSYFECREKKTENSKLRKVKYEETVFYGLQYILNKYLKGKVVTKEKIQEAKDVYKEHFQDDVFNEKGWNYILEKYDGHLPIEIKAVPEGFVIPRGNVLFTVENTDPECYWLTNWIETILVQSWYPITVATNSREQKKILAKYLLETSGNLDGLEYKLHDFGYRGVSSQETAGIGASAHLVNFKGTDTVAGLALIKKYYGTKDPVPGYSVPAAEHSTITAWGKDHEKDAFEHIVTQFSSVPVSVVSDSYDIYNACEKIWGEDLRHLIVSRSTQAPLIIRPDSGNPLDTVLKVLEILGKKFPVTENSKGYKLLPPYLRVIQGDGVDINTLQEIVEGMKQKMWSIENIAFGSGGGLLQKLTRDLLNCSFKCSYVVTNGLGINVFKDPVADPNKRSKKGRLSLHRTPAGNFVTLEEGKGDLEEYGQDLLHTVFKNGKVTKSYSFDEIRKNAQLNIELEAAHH

SMILES: Nc1ncnc2c1ncn2[C@@H]1O[C@H](COP(=O)(O)OP(=O)(O)OP(=O)(O)O)[C@@H](O)[C@H]1O [ATP]
Km ([1]; read-out: KM(ATP)): 7 mM

HTS outcome (increase of NAMPT enzyme activity) [2]: validated hits
SMILES: C/C=C(/C(=C/C)c1ccc(O)cc1)c1ccc(O)cc1 [dienestrol]

NAMPT activity relative to vehicle control ([3]; ATP 4 mM, NAM 3 or 300 μM, PRPP 40 μM): Inhibition of NAMPT activity | NAMPT activation ([3]; Fig. 2D): confirmed to activate NAMPT | KI(ATP) in presence of activator ([3]; left-shifted): < 1000 µM
SMILES: O=C(NCc1ccncc1)Nc1ccc(S(=O)(=O)N2CC3CCC(C2)O3)cc1 [SBI-0797812]
Effect on ATP dependence of NAMPT (KM(ATP), KI(ATP)) [3]: significant left-shift in KM(ATP); also recorded: dramatic left-shift in both KM and KI for ATP | Effect on cellular NAD+ (in words) [4]: reducing cellular levels of NAD^+; also recorded: inhibited both NAMPT activity and NAD^+ formation in THP-1 cells

Km ([2]; read-out: Apparent KM for NAM, no activator): ~0.000145 mM
SMILES: NC(=O)c1cccnc1 [NAM, nicotinamide]

SMILES: O=c1c(-c2ccc(O)cc2)coc2cc(O)cc(O)c12 [genestein]
HTS outcome (increase of NAMPT enzyme activity) [2]: validated hits

SMILES: COc1cccc(NCC(F)Cn2c3ccc(Br)cc3c3cc(Br)ccc32)c1 (stereo not drawn) [P7C3-A20]
Binding to NAMPT (in words) [5]: did not show any NAMPT binding activity

SMILES: C[C@@H]1O[C@@H](Oc2c(-c3ccc(O)c(O)c3)oc3cc(O)cc(O)c3c2=O)[C@H](O)[C@H](O)[C@H]1O [quercitrin]
Maximal activation of NAMPT relative to vehicle control [2]: high activation at higher concentrations | Effect on KM(ATP) ([2]; rate increased): without significant effect | HTS outcome (increase of NAMPT enzyme activity) [2]: validated hits | Binding to NAMPT (in words) [5]: weak binding NAMPT ligand | Kd [5]: 16 µM | Effect on uncoupled ATP consumption [6]: increase uncoupled ATP consumption | Effect on cellular NAD+ (in words) [4]: inactive in cells | Effect on cellular NAD+ (in words) ([4]; listed as Quercitrin): inactive

SMILES: O=c1c(O)c(-c2ccc(O)c(O)c2)oc2cc(O)cc(O)c12 [quercitin]
NAMPT activation in primary assay ([2]; at ≤ 40 μM): devoid of activity

HTS outcome (increase of NAMPT enzyme activity) [2]: validated hits
SMILES: COc1ccc(CC(=O)c2ccc(O)cc2O)cc1 [onenetin]

SMILES: NC(=O)c1ccc[n+]([C@@H]2O[C@H](COP(=O)([O-])OP(=O)(O)OC[C@H]3O[C@@H](n4cnc5c(N)ncnc54)[C@H](O)[C@@H]3O)[C@@H](O)[C@H]2O)c1 [NAD^+, Nicotinamide adenine dinucleotide]
Ki ([1]; read-out: KI for inhibition of NAMPT activity): 2 µM
